Literature values as cited in patent US20180104231A1, “BENZALKONIUM CHLORIDE FREE OPHTHALMIC COMPOSITION CONTAINING (+)-(S)-4-[4-CHLOROPHENYL) (2-PYRIDYL) METHOXY] PIPERDINO] BUTYRIC ACID OR PHARMACOLOGICALLY ACCEPTABLE ACID ADDITION SALT, THEREOF” (INTERA HEALTHCARE PLC, priority 2016, published 2018).

Experiments:
[1] = with the lapse of time
[2] = test system: corneal epithelium and endothelium

Compound	Stability to light in an aqueous solution [1]	Effect of BAC exposure on cornea ([2]; BAC 0.0001%, minimum of 15 min exposure)	Effect of BAC on corneal epithelial cells ([2]; clinical concentration (0.005%))
O=C(O)CCCN1CCC(O[C@@H](c2ccc(Cl)cc2)c2ccccn2)CC1.O=S(=O)(O)c1ccccc1 [bepotastine besilate]	unstable to light		
benzalkonium chloride [BAC]		physiological changes (edema) and ultra-structural changes to corneal epithelium and endothelium	cell wrinkling to lifting of corneal epithelial cells
